Type in all cases: biochemical
One assay deals with T1, 1D-Ppk2 (His6-1D-Ppk2) (Pseudomonas aeruginosa, UniProt Q9I154).
T1 construct: gene PA2428; N-terminal His6 tag, codon-optimised synthetic gene, pET-28a(+), expressed in E. coli BL21-Gold(DE3), IMAC purified, 38 kDa
T1 sequence (Q9I154 1-304): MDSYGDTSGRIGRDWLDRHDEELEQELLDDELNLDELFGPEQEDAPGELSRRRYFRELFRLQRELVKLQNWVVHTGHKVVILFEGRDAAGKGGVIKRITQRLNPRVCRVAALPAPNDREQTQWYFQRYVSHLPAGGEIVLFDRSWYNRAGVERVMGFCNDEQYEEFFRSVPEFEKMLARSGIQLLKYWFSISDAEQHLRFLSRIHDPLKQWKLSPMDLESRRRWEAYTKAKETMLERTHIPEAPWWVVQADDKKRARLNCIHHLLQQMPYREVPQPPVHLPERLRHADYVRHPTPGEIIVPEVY
Briefly: polyphosphate-dependent phosphorylation, HPAEC-UV. Conditions: 4 mM PolyP14, 10 mM MgCl2, pH 7.5, 30 °C; reversible.

The target in another assay is T2, His6-Glk (Escherichia coli, UniProt P0A6V8).
T2 construct: N-terminal His6 tag, pET-28a(+), expressed in E. coli BL21-Gold(DE3), IMAC purified, 39 kDa
T2 sequence (P0A6V8 1-321): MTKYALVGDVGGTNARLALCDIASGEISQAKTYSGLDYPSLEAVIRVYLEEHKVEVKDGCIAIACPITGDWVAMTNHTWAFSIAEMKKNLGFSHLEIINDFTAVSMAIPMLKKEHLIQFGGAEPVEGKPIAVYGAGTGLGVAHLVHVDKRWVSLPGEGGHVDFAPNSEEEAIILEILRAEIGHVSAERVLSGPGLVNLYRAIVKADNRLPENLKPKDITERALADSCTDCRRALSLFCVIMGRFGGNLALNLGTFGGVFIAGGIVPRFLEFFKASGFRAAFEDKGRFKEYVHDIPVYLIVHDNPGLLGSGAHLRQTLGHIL
Briefly: man6P formation, HPAEC-UV/CD. Particulars: 10 mM MgCl2, pH 7.5, 30 °C.

Assay [1] concerns the target T3, ManB-His6 (ManB-His6/ManC) (Escherichia coli, UniProt P24175).
T3 construct: C-terminal His6 ManB co-expressed and co-purified with untagged ManC, E. coli BL21-Gold(DE3), 50 kDa; ManB/ManC ratio only estimated 1:1; with Mannose-1-phosphate guanylyltransferase
Briefly: man1P/man6P equilibrium, HPAEC-CD. Conditions: 1.8 mM, 0.25 mM glucose-1,6-bisphosphate, 10 mM MgCl2, pH 7.5, 30 °C.

Each structure is given as a SMILES string.

T3 sequence (P24174 whole entry): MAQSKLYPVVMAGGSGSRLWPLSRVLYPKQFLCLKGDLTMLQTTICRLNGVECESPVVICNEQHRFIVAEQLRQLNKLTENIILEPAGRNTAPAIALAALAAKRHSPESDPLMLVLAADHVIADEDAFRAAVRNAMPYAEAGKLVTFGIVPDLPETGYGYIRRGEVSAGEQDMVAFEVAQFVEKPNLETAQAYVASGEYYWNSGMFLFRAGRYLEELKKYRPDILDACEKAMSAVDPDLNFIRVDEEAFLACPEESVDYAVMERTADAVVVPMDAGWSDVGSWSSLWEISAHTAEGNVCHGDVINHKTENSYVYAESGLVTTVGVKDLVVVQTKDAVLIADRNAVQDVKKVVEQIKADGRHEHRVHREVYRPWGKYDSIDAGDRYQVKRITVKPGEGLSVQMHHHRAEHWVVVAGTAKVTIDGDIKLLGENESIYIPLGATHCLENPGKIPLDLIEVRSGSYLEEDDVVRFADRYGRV
T3 sequence (P24175 whole entry): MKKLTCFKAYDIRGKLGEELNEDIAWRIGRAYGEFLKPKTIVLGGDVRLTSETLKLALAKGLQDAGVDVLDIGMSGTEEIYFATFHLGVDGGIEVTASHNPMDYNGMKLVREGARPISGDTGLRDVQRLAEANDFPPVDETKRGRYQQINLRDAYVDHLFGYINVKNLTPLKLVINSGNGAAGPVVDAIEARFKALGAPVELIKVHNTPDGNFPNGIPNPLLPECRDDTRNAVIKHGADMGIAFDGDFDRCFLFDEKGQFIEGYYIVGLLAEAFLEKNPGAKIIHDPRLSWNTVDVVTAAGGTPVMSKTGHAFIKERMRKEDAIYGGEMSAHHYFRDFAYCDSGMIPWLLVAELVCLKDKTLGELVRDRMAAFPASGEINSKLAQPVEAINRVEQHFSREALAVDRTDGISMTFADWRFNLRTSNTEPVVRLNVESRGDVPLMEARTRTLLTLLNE

`Nc1ncnc2c1ncn2[C@@H]1O[C@H](COP(=O)(O)OP(=O)(O)O)[C@@H](O)[C@H]1O` [ADP]: the “polyphosphate-dependent phosphorylation, HPAEC-UV” value on 1D-Ppk2 (His6-1D-Ppk2) is “phosphorylation of ADP and GDP, respectively, by His6‐1D‐Ppk2 are equilibrium reactions”.
With `Nc1ncnc2c1ncn2[C@@H]1O[C@H](COP(=O)(O)OP(=O)(O)OP(=O)(O)O)[C@@H](O)[C@H]1O` [ATP], the “man6P formation, HPAEC-UV/CD” value on His6-Glk (mannose co-substrate) is “conversion of ATP and mannose to man6P and ADP is irreversible”.
With `Nc1nc2c(ncn2[C@@H]2O[C@H](COP(=O)(O)OP(=O)(O)O)[C@@H](O)[C@H]2O)c(=O)[nH]1` [GDP], the “polyphosphate-dependent phosphorylation, HPAEC-UV” value at 1D-Ppk2 (His6-1D-Ppk2) was “phosphorylation of ADP and GDP, respectively, by His6‐1D‐Ppk2 are equilibrium reactions”.
As to `O=P(O)(O)O[C@H]1O[C@H](CO)[C@@H](O)[C@H](O)[C@@H]1O` [man1P], in assay [1], the “man1P/man6P equilibrium, HPAEC-CD” value is on record as “equilibrium conversion of man1P to man6P catalyzed by the ManB‐His6/ManC complex”.
With `OC[C@H]1OC(O)[C@@H](O)[C@@H](O)[C@@H]1O` (some centres unmarked) [mannose], the “man6P formation, HPAEC-UV/CD” value at His6-Glk (ATP 1.7 mM, irreversible) was “conversion of ATP and mannose to man6P and ADP is irreversible”.

Source of the values: PMC5765510, “One pot synthesis of GDP‐mannose by a multi‐enzyme cascade for enzymatic assembly of lipid‐linked oligosaccharides” (Biotechnology and Bioengineering, 2017).
